Laboratory results: patent US20090170844A1, “Spiro Tetracyclic Compound” (priority 2006, published 2009)

How the values were obtained:
[1] = test system: human plasma; experiment: Anticoagulant activity in vitro: intrinsic coagulation time (APTT); assay type: biochemical; conditions: APTT reagent, calcium chloride 25 mM
Experimental: Activated partial thromboplastin time (APTT) is measured in the presence of the test compounds of the present invention diluted at various concentrations. To be more specific, each of the test compounds diluted with DMSO at various concentrations is mixed with human plasma and APTT reagent. The mixture is incubated at 37° C. for 2 minutes; calcium chloride (25 mM) is added to the mixture; and the coagulation time is thereafter measured. It should be noted that the anticoagulant activity of the test compound is described in terms of the concentration required to double the coagulation time for the case where no test compound is added.

[2] = target: T1, human FXa (Homo sapiens, UniProt P00742); experiment: Measurement of the human FXa inhibitory action (synthetic substrate S-2222); assay type: biochemical; conditions: human FXa 0.019 U/ml, S-2222 0.4 mM, 37° C., pH 7.5
T1 construct: purchased Enzyme Research Laboratories, Inc
T1 sequence (P00742 235-488 limits assumed): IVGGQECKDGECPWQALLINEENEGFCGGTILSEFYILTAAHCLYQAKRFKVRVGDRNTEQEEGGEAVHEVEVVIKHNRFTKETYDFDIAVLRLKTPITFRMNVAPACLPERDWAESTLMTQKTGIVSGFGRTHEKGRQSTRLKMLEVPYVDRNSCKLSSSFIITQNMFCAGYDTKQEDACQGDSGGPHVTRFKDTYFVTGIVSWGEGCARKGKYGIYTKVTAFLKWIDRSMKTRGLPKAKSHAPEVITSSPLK
T1 sequence (P00742 41-179 partner limits assumed): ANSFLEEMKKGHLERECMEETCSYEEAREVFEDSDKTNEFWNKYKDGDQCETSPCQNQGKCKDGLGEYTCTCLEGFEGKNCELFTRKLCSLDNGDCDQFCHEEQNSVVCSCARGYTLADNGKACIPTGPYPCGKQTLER
Experimental: In vitro FXa inhibitory activity may be measured according to the method of Kettner et al. (Journal of Biological Chemistry, vol. 265, pages 18289 to 18297, 1990). To be more specific, human FXa (product of Enzyme Research Laboratories, Inc., 0.019 U/ml) is mixed with the specimens (of the compound of the present invention) prepared by diluting the compound of the invention with dimethylsulfoxide (DMSO) to different concentrations and synthetic substrate S-2222 (Chromogenix AB, 0.4 mM), and the mixtures are incubated at 37° C. in Tris-hydrochloric acid buffer (pH 7.5). The FXa inhibitory activity of the specimen is calculated by measuring the absorbance at 405 nm.
It should be noted that the FXa inhibitory activity of the specimen is generally indicated as IC50.

IC50 [2]	SMILES	Concentration when APTT was doubled [1]
–	CN1CC23CN(S(=O)(=O)c4cc5ccc(Cl)cc5s4)CC(=O)N2CC2(CCN(C4=NCCCO4)CC2)N3C1=O (single isomer, unassigned; (-)) [Example 12, (−)-3′,5′,8′,11′-tetraaza-11′-(6-chlorobenzo[b]thiophen-2-ylsulfonyl)-1-(5,6-dihydro-4H-1,3-oxazin-2-yl)-3′-methylspiro[piperidine-4,6′-tricyclo[6.4.0.0^1,5]dodecane]-4′,9′-dione]	0.34 µM
4.1 nM	O=C1CN(S(=O)(=O)c2ccc3cc(Cl)ccc3c2)CC23CNC(=O)N2C2(CCN(c4cccnn4)CC2)CN13 (racemic) [Example 3, (±)-3′,5′,8′,11′-tetraaza-11′-(6-chloronaphthalen-2-ylsulfonyl)-1-(3-pyridazinyl)spiro[piperidine-4,6′-tricyclo[6.4.0.0^1,5]dodecane]-4′,9′-dione]	–
0.4 nM	CN1CC23CN(S(=O)(=O)c4cc5cc(Cl)ccc5[nH]4)CC(=O)N2CC2(CCN(C4=NCCO4)CC2)N3C1=O (single isomer, unassigned; (-)) [Example 17, (−)-3′,5′,8′,11′-tetraaza-11′-(5-chloro-1H-indol-2-ylsulfonyl)-3′-methyl-1-(2-oxazolinyl)spiro[piperidine-4,6′-tricyclo[6.4.0.0^1,5]dodecane]-4′,9′-dione]	–
3 nM	CN1CC23CN(S(=O)(=O)c4cc5cc(Cl)ccc5[nH]4)CC(=O)N2CC2(CCN(C4=NCCCC4)CC2)N3C1=O (single isomer, unassigned; (-)) [Example 20, (−)-3′,5′,8′,11′-tetraaza-11′-(5-chloro-1H-indol-2-ylsulfonyl)-1-(3,4,5,6-tetrahydropyridin-2-yl)-3′-methylspiro[piperidine-4,6′-tricyclo[6.4.0.0^1,5]dodecane]-4′,9′-dione]	0.24 µM
–	CN1CC23CN(S(=O)(=O)c4ccc5cc(Cl)ccc5c4)CC(=O)N2CC2(CCN(C4=NCCCC4)CC2)N3C1=O (single isomer, unassigned; (-)) [Example 8, (−)-3′,5′,8′,11′-tetraaza-11′-(6-chloronaphthalen-2-ylsulfonyl)-1-(3,4,5,6-tetrahydropyridin-2-yl)-3′-methylspiro[piperidine-4,6′-tricyclo[6.4.0.0^1,5]dodecane]-4′,9′-dione]	0.27 µM
4 nM	CCC(=O)N1CCC2(CC1)CN1C(=O)CN(S(=O)(=O)c3cc4cc(Cl)ccc4[nH]3)CC13CN(C)C(=O)N23 (single isomer, unassigned; (-)) [Example 22, (−)-3′,5′,8′,11′-tetraaza-11′-(5-chloro-1H-indol-2-ylsulfonyl)-3′-methyl-1-propionylspiro[piperidine-4,6′-tricyclo[6.4.0.0^1,5]dodecane]-4′,9′-dione]	–
4.3 nM	CN1CC23CN(S(=O)(=O)c4cc5cc(Cl)ccc5[nH]4)CC(=O)N2CC2(CCN(C4=NCCCO4)CC2)N3C1=O (single isomer, unassigned; (-)) [Example 18, (−)-3′,5′,8′,11′-tetraaza-11′-(5-chloro-1H-indol-2-ylsulfonyl)-1-(5,6-dihydro-4H-1,3-oxazin-2-yl)-3′-methylspiro[piperidine-4,6′-tricyclo[6.4.0.0^1,5]dodecane]-4′,9′-dione]	0.26 µM
2.4 nM	CN1CC23CN(S(=O)(=O)c4ccc5cc(Cl)ccc5c4)CC(=O)N2CC2(CCN(C4=NCCO4)CC2)N3C1=O (single isomer, unassigned; (-)) [Example 29, (−)-3′,5′,8′,11′-tetraaza-11′-(6-chloronaphthalen-2-ylsulfonyl)-3′-methyl-1-(2-oxazolinyl)spiro[piperidine-4,6′-tricyclo[6.4.0.0^1,5]dodecane]-4′,9′-dione]	–
4 nM	CN1CN2C3(CCN(c4ccncc4)CC3)CN3C(=O)CN(S(=O)(=O)c4ccc5cc(Cl)ccc5c4)CC32C1 (racemic) [Example 5, (±)-3′,5′,8′,11′-tetraaza-11′-(6-chloronaphthalen-2-ylsulfonyl)-3′-methyl-1-(4-pyridyl)spiro[piperidine-4,6′-tricyclo[6.4.0.0^1,5]dodecan]-9′-one]	–
4.7 nM	CN1CC23CN(S(=O)(=O)c4cc5ccc(Cl)cc5s4)CC(=O)N2CC2(CCN(C4=NCCO4)CC2)N3C1=O (single isomer, unassigned; (-)) [Example 11, (−)-3′,5′,8′,11′-tetraaza-11′-(6-chlorobenzo[b]thiophen-2-ylsulfonyl)-3′-methyl-1-(2-oxazolinyl)spiro[piperidine-4,6′-tricyclo[6.4.0.0^1,5]dodecane]-4′,9′-dione]	–
4.8 nM	O=C1CN(S(=O)(=O)c2ccc3cc(Cl)ccc3c2)CC23CNC(=O)N2C2(CCN(C4=NCCO4)CC2)CN13 (racemic) [Example 2, (±)-3′,5′,8′,11′-tetraaza-11′-(6-chloronaphthalen-2-ylsulfonyl)-1-(2-oxazolinyl)spiro[piperidine-4,6′-tricyclo[6.4.0.0^1,5]dodecane]-4′,9′-dione]	–
3.6 nM	CN1CC23CN(S(=O)(=O)c4cc5ccc(Cl)cc5s4)CC(=O)N2CC2(CCN(C4=NCCCC4)CC2)N3C1=O (single isomer, unassigned; (-)) [Example 14, (−)-3′,5′,8′,11′-tetraaza-11′-(6-chlorobenzo[b]thiophen-2-ylsulfonyl)-1-(3,4,5,6-tetrahydropyridin-2-yl)-3′-methylspiro[piperidine-4,6′-tricyclo[6.4.0.0^1,5]dodecane]-4′,9′-dione]	0.24 µM
